In patent US8569495B2, “Anthelmintic agents and their use” (Intervet International B.V., priority 2007, dated 2013):

What follows are compounds tested on Ascaridia galli (L3) and Oesophagostomum dentatum (L3 and L4) (assay: In vitro anthelmintic activity against larval stages of Ascaridia galli and Oesophagostomum dentatum (MEC)). Conditions: Ascaridia galli, in vitro; A. galli L3, O. dentatum L3 and L4; 20 larvae per well; microscopic examination; read-out: minimum effective concentration (MEC) against one or more of the tested nematodes.

| Structure (SMILES) | minimal effective concentration |
| --- | --- |
| CN(CC1CCC(Nc2ccc([N+](=O)[O-])c(C(F)(F)F)c2)CC1)C(=O)N1CCN(c2ccc(C(C)(C)C)cc2)CC1 (stereo not drawn) [Example 141] | < 1 µM |
| N#Cc1ccc(NC2CCC(OCC(=S)N3CCN(c4ccc(Cl)cc4)CC3)CC2)cc1C(F)(F)F (stereo not drawn) [Example 209] | < 1 µM |
| N#Cc1cc([N+](=O)[O-])ccc1N[C@H]1CC[C@H](OCC(=O)N2CCN(c3ccc(Cl)cc3)CC2)CC1 [Example 245] | < 7 µM |
| CN(CC1CCC(Nc2ccc([N+](=O)[O-])c(C(F)(F)F)c2)CC1)C(=O)C1CCN(c2ccc(C(F)(F)F)cc2)CC1 (stereo not drawn) [Example 111] | < 1 µM |
| COc1cc(N[C@H]2CC[C@H](OCC(=O)N3CCN(c4ccc(C(F)(F)F)cc4)CC3)CC2)ccc1[N+](=O)[O-] [Example 234] | < 1 µM |
| O=C(NCC1CCC(Nc2ccc([N+](=O)[O-])c(C(F)(F)F)c2)CC1)C1CCN(c2ccc(F)cc2)CC1 (stereo not drawn) [Example 113] | < 7 µM |
| O=C(NCC1CCC(Nc2ccc([N+](=O)[O-])c(C(F)(F)F)c2)CC1)C1CCN(c2ccc(Cl)cc2)CC1 (stereo not drawn) [Example 107] | < 7 µM |
| CC(C)(C)c1ccc(N2CCC(CNC(=O)C3CCC(Nc4ccc([N+](=O)[O-])c(C(F)(F)F)c4)CC3)CC2)cc1 (stereo not drawn) [Example 122] | < 1 µM |
| O=C(COC1CCC(Nc2ccc([N+](=O)[O-])c(C(F)(F)F)c2)CC1)N1CCC(c2ccc(Cl)cc2)CC1 (stereo not drawn) [Example 73] | < 1 µM |
| O=C(COC1CCC(Nc2ccc([N+](=O)[O-])c(C(F)(F)F)c2)CC1)N1CC2CC1CN2c1ccc(C(F)(F)F)cc1 (stereo not drawn) [Example 146] | < 1 µM |
| Cc1cc(N[C@H]2CC[C@H](OCC(=O)N3CCN(c4ccc(Cl)cc4)CC3)CC2)ccc1[N+](=O)[O-] [Example 241] | < 1 µM |
| CC(C)(C)c1ccc(N2CCN(CCOC3CCC(Nc4ccc([N+](=O)[O-])c(C(F)(F)F)c4)CC3)CC2)cc1 (stereo not drawn) [Example 116] | < 1 µM |
| CCOc1ccc(N2CCC(CN(C)C(=O)C3CCC(Nc4ccc([N+](=O)[O-])c(C(F)(F)F)c4)CC3)CC2)cc1 (stereo not drawn) [Example 133] | < 1 µM |
| Cc1ccc(N2CCC(CNC(=O)C3CCC(Nc4ccc([N+](=O)[O-])c(C(F)(F)F)c4)CC3)CC2)cc1 (stereo not drawn) [Example 123] | < 1 µM |
| O=C(COC1CCC(Nc2ccc(OC(F)(F)F)c(C(F)(F)F)c2)CC1)N1CCN(c2ccc(Cl)cc2)CC1 (stereo not drawn) [Example 90] | < 1 µM |
| CC(C)(C)c1ccc(N2CCN(C(=O)NCC3CCC(Nc4ccc([N+](=O)[O-])c(C(F)(F)F)c4)CC3)CC2)cc1 (stereo not drawn) [Example 143] | < 1 µM |
| N#Cc1ccc(NC2CCC(OCC(=O)N3CCN(c4ccc(Cl)cc4)CC3)CC2)cc1C(F)(F)F (stereo not drawn) [Example 88] | < 1 µM |
| COc1ccc(N2CCN(C(=S)COC3CCC(Nc4ccc([N+](=O)[O-])c(C(F)(F)F)c4)CC3)CC2)cc1OC (stereo not drawn) [Example 207] | < 1 µM |
| Cc1ccc(N2CCN(C(=O)COC3CCC(Nc4ccc([N+](=O)[O-])c(C(F)(F)F)c4)CC3)CC2)c(C)c1 (stereo not drawn) [Example 67] | < 1 µM |
| O=[N+]([O-])c1ccc(NC2CCC(OCC(=S)N3CCN(c4ccc(Cl)c(C(F)(F)F)c4)CC3)CC2)cc1C(F)(F)F (stereo not drawn) [Example 221] | < 1 µM |
| O=C(NCC1CCN(c2ccc(C(F)(F)F)cc2)CC1)C1CCC(Nc2ccc([N+](=O)[O-])c(C(F)(F)F)c2)CC1 (stereo not drawn) [Example 120] | < 1 µM |
| O=C(NCC1CCC(Nc2ccc([N+](=O)[O-])c(C(F)(F)F)c2)CC1)N1CCN(c2ccc(C(F)(F)F)cc2)CC1 (stereo not drawn) [Example 145] | < 1 µM |
| O=C(COC1CCC(Nc2ccc([N+](=O)[O-])c(C(F)(F)F)c2)CC1)N1CCCN(c2ccc(C(F)(F)F)cc2)CC1 (stereo not drawn) [Example 149] | < 1 µM |
| Cc1ccc(N2CCN(C(=S)COC3CCC(Nc4ccc([N+](=O)[O-])c(C(F)(F)F)c4)CC3)CC2)cc1 (stereo not drawn) [Example 222] | < 1 µM |

Same assay, conditions: Ascaridia galli, in vitro; A. galli L3, O. dentatum L3 and L4; 20 larvae per well; microscopic examination; read-out: minimum effective concentration (MEC) against two or more of the tested nematodes

| Structure (SMILES) | minimal effective concentration |
| --- | --- |
| CC(C)(C)c1ccc(N2CCN(C(=O)COC3CCC(Nc4ccc(SC(F)(F)F)cc4)CC3)CC2)cc1 (stereo not drawn) [Example 103] | < 1 µM |
| CC(C)(C)c1ccc(N2CCC(CNC(=O)C3CCC(Nc4ccc([N+](=O)[O-])c(C(F)(F)F)c4)CC3)CC2)cc1 (stereo not drawn) [Example 122] | < 1 µM |
| CC(C)(C)c1ccc(N2CCN(C(=S)COC3CCC(Nc4ccc(OC(F)(F)F)c(C(F)(F)F)c4)CC3)CC2)cc1 (stereo not drawn) [Example 202] | < 1 µM |
| O=C(COC1CCC(Nc2ccc([N+](=O)[O-])c(C(F)(F)F)c2)CC1)N1CCN(c2ccc(Cl)cc2)CC1 (stereo not drawn) [Example 63] | < 1 µM |
| CC(C)COc1ccc(N2CCN(C(=O)COC3CCC(Nc4ccc([N+](=O)[O-])c(C(F)(F)F)c4)CC3)CC2)cc1 (stereo not drawn) [Example 82] | < 1 µM |
| CCOc1ccc(N2CCC(CN(C)C(=O)C3CCC(Nc4ccc([N+](=O)[O-])c(C(F)(F)F)c4)CC3)CC2)cc1 (stereo not drawn) [Example 133] | < 1 µM |
| O=C(COC1CCC(Nc2ccc(Cl)c(C(F)(F)F)c2)CC1)N1CCN(c2ccc(OCc3ccccc3)cc2)CC1 (stereo not drawn) [Example 97] | < 1 µM |
| O=C(COC1CCC(Nc2ccc([N+](=O)[O-])c(C(F)(F)F)c2)CC1)N1CC2CN(c3ccc(Cl)cc3)CC2C1 (stereo not drawn) [Example 262] | < 1 µM |
| CC(C)(C)c1ccc(C2CCN(C(=O)COC3CCC(Nc4ccc(C#N)c(C(F)(F)F)c4)CC3)CC2)cc1 (stereo not drawn) [Example 166] | < 1 µM |
| N#Cc1ccc(N[C@H]2CC[C@H](OCC(=O)N3CCN(c4ccc(OCc5ccccc5)cc4)CC3)CC2)cc1C(F)(F)F [Example 25, 4-(trans-4-{2-[4-(4-benzyloxy-phenyl)-piperazin-1-yl]-2-oxoethoxy}-cyclohexylamino)-2-trifluoromethyl-benzonitrile] | < 1 µM |
| O=C(COC1CCC(Nc2ccc([N+](=O)[O-])c(C(F)(F)F)c2)CC1)N1CCN(c2ccc(C(F)(F)F)cc2)C(=O)C1 (stereo not drawn) [Example 158] | < 1 µM |
| CC(C)(C)c1ccc(N2CCN(C(=O)COC3CCC(Oc4ccc([N+](=O)[O-])c(C(F)(F)F)c4)CC3)CC2)cc1 (stereo not drawn) [Example 260] | < 1 µM |
| O=[N+]([O-])c1ccc(NC2CCC(CCC(=S)N3CCN(c4ccc(C(F)(F)F)cc4)CC3)CC2)cc1C(F)(F)F (stereo not drawn) [Example 213] | < 1 µM |
| CC(C)(C)c1ccc(N2CCC(C(=O)NC[C@H]3CC[C@H](Nc4ccc([N+](=O)[O-])c(C(F)(F)F)c4)CC3)CC2)cc1 [Example 54, 1-(4-tert-butyl-phenyl)-N-[trans-4-(4-nitro-3-trifluoromethyl-phenylamino)-cyclohexylmethyl]-piperidine-4-carboxamide] | < 1 µM |
| CC(C)(C)c1ccc(N2CCN(C(=O)CO[C@H]3CC[C@H](Nc4ccc(C#N)c(C(F)(F)F)c4)CC3)CC2)cc1 [Example 27, 4-(trans-4-{2-[4-(4-tert-butyl-phenyl)-piperazin-1-yl]-2-oxo-ethoxy}-cyclohexylamino)-2-trifluoromethyl-benzonitrile] | < 1 µM |
| CSc1ccc(NC2CCN(C(=O)COC3CCC(Nc4ccc([N+](=O)[O-])c(C(F)(F)F)c4)CC3)CC2)cc1C(F)(F)F (stereo not drawn) [Example 188] | < 1 µM |
| O=C(COC1CCC(Nc2ccc([N+](=O)[O-])c(C(F)(F)F)c2)CC1)N1CCC(Nc2ccc([N+](=O)[O-])c(C(F)(F)F)c2)CC1 (stereo not drawn) [Example 189] | < 1 µM |
| COc1cc(N[C@H]2CC[C@H](OCC(=O)N3CCN(c4ccc(C(C)(C)C)cc4)CC3)CC2)ccc1[N+](=O)[O-] [Example 249] | < 1 µM |
| O=C(NCC1CCN(c2ccc(C(F)(F)F)cc2)CC1)C1CCC(Nc2ccc([N+](=O)[O-])c(C(F)(F)F)c2)CC1 (stereo not drawn) [Example 120] | < 1 µM |
| O=C(COC1CCC(Nc2ccc([N+](=O)[O-])c(C(F)(F)F)c2)CC1)N1CCN(c2ccc(F)cc2F)CC1 (stereo not drawn) [Example 71] | < 1 µM |
| CN(CC1CCN(c2ccc(Cl)cc2)CC1)C(=O)C1CCC(Nc2ccc([N+](=O)[O-])c(C(F)(F)F)c2)CC1 (stereo not drawn) [Example 136] | < 1 µM |
| O=C(NCC1CCC(Nc2ccc([N+](=O)[O-])c(C(F)(F)F)c2)CC1)N1CCN(c2ccc(C(F)(F)F)cc2)CC1 (stereo not drawn) [Example 145] | < 1 µM |
| O=C(COC1CCC(Nc2ccc([N+](=O)[O-])c(C(F)(F)F)c2)CC1)N1CCCN(c2ccc(C(F)(F)F)cc2)CC1 (stereo not drawn) [Example 149] | < 1 µM |
| O=C(CC[C@H]1CC[C@H](Nc2ccc([N+](=O)[O-])c(C(F)(F)F)c2)CC1)N1CCN(c2ccc(C(F)(F)F)cc2)CC1 [Example 41, 3-(trans-4-(4-nitro-3-trifluoromethyl-phenylamino)-cyclohexyl)-1-(4-(4-trifluoromethyl-phenyl)-piperazin-1-yl)-propan-1-one] | < 1 µM |

Same assay, conditions: Ascaridia galli, read-out: minimum effective concentration (MEC) against one or more of the tested nematodes, in vitro; A. galli L3, O. dentatum L3 and L4; 20 larvae per well; microscopic examination

| Structure (SMILES) | minimal effective concentration |
| --- | --- |
| O=C(COC1CCC(Nc2ccc([N+](=O)[O-])c(C(F)(F)F)c2)CC1)NCCCNc1ccc(C(F)(F)F)cc1 (stereo not drawn) [Example 152] | < 1 µM |

Same assay, conditions: Ascaridia galli, read-out: minimum effective concentration (MEC) against two or more of the tested nematodes, in vitro; A. galli L3, O. dentatum L3 and L4; 20 larvae per well; microscopic examination

| Structure (SMILES) | minimal effective concentration |
| --- | --- |
| CN(c1ccc([N+](=O)[O-])c(C(F)(F)F)c1)C1CCC(OCC(=S)N2CCN(c3ccc(C(F)(F)F)cc3)CC2)CC1 (stereo not drawn) [Example 218] | < 1 µM |
| O=C(CO[C@H]1CC[C@H](Nc2ccc([N+](=O)[O-])c(C(F)(F)F)c2)CC1)N1CCC(c2ccc(F)cc2F)CC1 [Example 22, 1-[4-(2,4-difluoro-phenyl)-piperidin-1-yl]-2-[trans-4-(4-nitro-3-trifluoromethyl-phenylamino)-cyclohexyloxy]-ethanone] | < 1 µM |
| CCC(OC1CCC(Nc2ccc([N+](=O)[O-])c(C(F)(F)F)c2)CC1)C(=O)N1CCN(c2ccc(C(F)(F)F)cc2)CC1 (stereo not drawn) [Example 226] | < 1 µM |
| O=C(CO[C@H]1CC[C@H](Nc2ccc([N+](=O)[O-])c(C(F)(F)F)c2)CC1)N1CCN(c2ccc(OCc3ccc(C(F)(F)F)cc3)cc2)CC1 [Example 20, 2-[trans-4-(4-nitro-3-trifluoromethyl-phenylamino)-cyclohexyloxy]-1-{4-[4-(4-trifluoromethyl-benzyloxy)-phenyl]-piperazin-1-yl}-ethanone] | < 1 µM |

Same assay, conditions: in vitro; A. galli L3, O. dentatum L3 and L4

| Structure (SMILES) | activity against the tested nematodes |
| --- | --- |
| O=C(CO[C@H]1CC[C@H](Nc2ccc([N+](=O)[O-])cc2C(F)(F)F)CC1)N1CCN(c2ccccc2)CC1 [Example 240] | no detectable activity |
